Experiments:
[1] = Selectivity index, ratio of CC50 for cytotoxicity against dog MDCK cells to IC50 for antiviral activity against Influenza A virus A/WSN/33(H1N1) infected in HEK293T cells; format: toxicity, cell-based; conditions: read-out: Selectivity Index
[2] = Cytotoxicity against dog MDCK cells by MTT assay; format: toxicity, cell-based, Canis lupus familiaris
[3] = tested on: Influenza A virus; assay: Antiviral activity against Influenza A virus A/WSN/33(H1N1) infected in HEK293T cells by Gaussia luciferase assay; format: functional, organism-based; conditions: HEK-293T
[4] = tested on: Influenza A virus; assay: Antiviral activity against Influenza A virus A/WSN/33(H1N1) infected in HEK293T cells assessed as inhibition of viral replication at 50 uM by Gaussia luciferase assay; format: functional; conditions: HEK-293T

O=C1/C=C/CCc2ccc(O)c(c2)-c2cc(ccc2O)C[C@H]1O
selectivity ratio [1]: > 12 | CC50 at 48 h [2]: > 100 µM | IC50 [3]: 8.64 µM | inhibition at 50 µM [4]: 60%

— ChEMBL document CHEMBL5137116, “Discovery of Cyclic Diarylheptanoids as Inhibitors against Influenza A Virus from the Roots of Casuarina equisetifolia” (J Nat Prod, 2022)
